Test results from US11147812B2, “Tyrosine analogues derivatives as Rho-kinase inhibitors” (Chiesi Farmaceutici S.p.A., priority 2017, dated 2021).

Columns and labels:
Rho kinase 1 (ROCK1) = Rho kinase 1 (ROCK1) (Homo sapiens, UniProt Q13464); assay: In vitro Rho kinase inhibitory activity assay (ADP-Glo), ROCK1; type: biochemical; conditions: 10 μM ATP, 25° C., Ki by Cheng-Prusoff
Protocol: (§1) The effectiveness of compounds of the present invention to inhibit Rho kinase activity can be determined in a 10 μl assay containing 40 mM Tris pH7.5, 20 mM MgCl2 0.1 mg/ml BSA, 50 μM DTT and 2.5 μM peptide substrate (Myelin Basic Protein) using an ADP-Glo kit (Promega). Compounds were dissolved in DMSO such that the final concentration of DMSO was 1% in the assay. All reactions/incubations are performed at 25° C. Compound (2 ul) and either Rho kinase 1 or 2 (4 μl) were mixed and incubated for 30 mins. Reactions were initiated by addition of ATP (4 μl) such that the final concentration of ATP in the assay was 10 μM. After a 1 hour incubation 10 μl of ADP-Glo Reagent was added and after a further 45 minute incubation 20 ul of Kinase Detection Buffer was added and the mixture incubated for a further 30 minutes. The luminescent signal was measured on a luminometer. […] Compounds were tested in dose-response format and the inhibition of kinase activity was calculated at each concentration of compound. To determine the IC50 (concentration of compound required to inhibit 50% of the enzyme activity) data were fit to a plot of % inhibition vs Log10 compound concentration using a sigmoidal fit with a variable slope and fixing the maximum to 100% and the minimum to 0%. To determine the Ki values the Cheng-Prusoff equation was utilized (Ki=IC50/(1+[S]/Km)

Rho kinase 2 (ROCK2) = Rho kinase 2 (ROCK2) (Homo sapiens, UniProt O75116); assay: In vitro Rho kinase inhibitory activity assay (ADP-Glo), ROCK2; type: biochemical; conditions: 10 μM ATP, 25° C., Ki by Cheng-Prusoff
Sequence of Rho kinase 2 (ROCK2) (O75116 whole entry): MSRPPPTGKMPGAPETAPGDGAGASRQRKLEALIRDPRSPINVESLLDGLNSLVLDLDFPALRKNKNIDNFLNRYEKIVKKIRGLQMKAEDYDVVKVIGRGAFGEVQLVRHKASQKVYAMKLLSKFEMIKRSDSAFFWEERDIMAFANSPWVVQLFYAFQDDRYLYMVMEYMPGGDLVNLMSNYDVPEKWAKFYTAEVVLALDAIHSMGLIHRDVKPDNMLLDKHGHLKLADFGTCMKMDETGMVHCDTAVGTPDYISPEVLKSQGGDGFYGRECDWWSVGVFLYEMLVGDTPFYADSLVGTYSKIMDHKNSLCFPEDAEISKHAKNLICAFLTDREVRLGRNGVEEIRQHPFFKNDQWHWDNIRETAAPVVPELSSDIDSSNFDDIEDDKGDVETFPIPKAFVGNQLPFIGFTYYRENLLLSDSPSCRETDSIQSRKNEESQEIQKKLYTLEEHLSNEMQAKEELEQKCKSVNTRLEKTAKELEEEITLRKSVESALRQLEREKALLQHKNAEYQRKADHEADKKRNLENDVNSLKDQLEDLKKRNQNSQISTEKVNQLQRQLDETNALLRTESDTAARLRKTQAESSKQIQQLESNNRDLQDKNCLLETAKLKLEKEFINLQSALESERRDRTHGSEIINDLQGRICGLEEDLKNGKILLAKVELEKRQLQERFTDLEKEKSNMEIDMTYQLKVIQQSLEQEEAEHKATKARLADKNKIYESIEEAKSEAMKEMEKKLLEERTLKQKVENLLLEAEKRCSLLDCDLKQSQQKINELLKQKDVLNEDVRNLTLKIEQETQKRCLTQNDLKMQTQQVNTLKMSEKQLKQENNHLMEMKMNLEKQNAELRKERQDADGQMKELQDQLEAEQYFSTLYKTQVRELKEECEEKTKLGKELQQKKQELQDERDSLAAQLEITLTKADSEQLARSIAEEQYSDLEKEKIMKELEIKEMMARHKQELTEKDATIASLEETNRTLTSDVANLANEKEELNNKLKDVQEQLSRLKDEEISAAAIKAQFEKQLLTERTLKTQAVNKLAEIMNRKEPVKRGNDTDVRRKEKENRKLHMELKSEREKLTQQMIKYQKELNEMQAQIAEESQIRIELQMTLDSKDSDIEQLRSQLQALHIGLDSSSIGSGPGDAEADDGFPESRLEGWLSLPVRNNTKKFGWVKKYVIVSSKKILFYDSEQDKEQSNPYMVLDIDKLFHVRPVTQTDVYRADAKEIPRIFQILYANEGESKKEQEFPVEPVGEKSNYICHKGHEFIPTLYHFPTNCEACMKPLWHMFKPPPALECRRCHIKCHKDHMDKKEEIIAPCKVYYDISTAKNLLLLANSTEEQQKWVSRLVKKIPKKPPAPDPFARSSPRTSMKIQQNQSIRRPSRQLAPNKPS
Protocol: as §1

Sequence of Rho kinase 1 (ROCK1) (Q13464 whole entry): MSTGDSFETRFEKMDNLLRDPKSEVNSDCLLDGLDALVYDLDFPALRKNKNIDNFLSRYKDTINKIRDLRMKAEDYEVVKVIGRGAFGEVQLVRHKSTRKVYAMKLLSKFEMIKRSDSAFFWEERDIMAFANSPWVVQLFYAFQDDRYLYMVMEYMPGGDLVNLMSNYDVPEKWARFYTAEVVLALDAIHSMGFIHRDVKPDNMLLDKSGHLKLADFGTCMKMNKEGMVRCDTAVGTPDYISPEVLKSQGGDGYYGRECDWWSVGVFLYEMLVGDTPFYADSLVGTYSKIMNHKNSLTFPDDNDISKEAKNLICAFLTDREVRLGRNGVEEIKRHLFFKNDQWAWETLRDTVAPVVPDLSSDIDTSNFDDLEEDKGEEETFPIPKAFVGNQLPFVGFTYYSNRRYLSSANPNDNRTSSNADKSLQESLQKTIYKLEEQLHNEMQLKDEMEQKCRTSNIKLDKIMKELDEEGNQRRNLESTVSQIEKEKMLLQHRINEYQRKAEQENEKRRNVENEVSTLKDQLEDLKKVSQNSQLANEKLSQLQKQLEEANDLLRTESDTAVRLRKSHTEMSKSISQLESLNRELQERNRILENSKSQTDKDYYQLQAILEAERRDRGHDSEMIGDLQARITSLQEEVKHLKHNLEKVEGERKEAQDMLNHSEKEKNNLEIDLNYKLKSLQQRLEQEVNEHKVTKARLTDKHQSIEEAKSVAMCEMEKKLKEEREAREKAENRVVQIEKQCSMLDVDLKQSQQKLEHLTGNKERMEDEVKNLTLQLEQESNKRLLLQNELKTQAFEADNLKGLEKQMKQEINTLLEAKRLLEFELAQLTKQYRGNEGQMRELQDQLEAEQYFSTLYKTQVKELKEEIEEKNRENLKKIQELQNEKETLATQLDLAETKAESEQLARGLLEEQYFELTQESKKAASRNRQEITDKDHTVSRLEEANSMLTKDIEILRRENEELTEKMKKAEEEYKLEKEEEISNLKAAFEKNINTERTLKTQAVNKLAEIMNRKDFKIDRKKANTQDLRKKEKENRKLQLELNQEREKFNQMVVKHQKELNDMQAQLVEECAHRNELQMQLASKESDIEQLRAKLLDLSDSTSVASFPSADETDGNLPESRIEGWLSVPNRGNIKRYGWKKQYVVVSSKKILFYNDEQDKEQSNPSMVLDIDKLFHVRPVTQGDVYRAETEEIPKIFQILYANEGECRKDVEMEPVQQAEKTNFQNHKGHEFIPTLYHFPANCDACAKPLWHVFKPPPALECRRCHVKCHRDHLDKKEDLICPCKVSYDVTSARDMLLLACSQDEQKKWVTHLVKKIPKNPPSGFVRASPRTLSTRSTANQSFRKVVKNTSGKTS

| Compound | Ki (Rho kinase 1 (ROCK1)) [nM] | Ki (Rho kinase 2 (ROCK2)) [nM] |
| --- | --- | --- |
| Cc1c[nH]c2nccc(Oc3ccc(CC(CN)C(=O)N4C[C@@H]5C[C@H]4CN5C)cc3F)c12 (stereo partly drawn) [Example 4, 3-amino-2-(3-fluoro-4-((3-methyl-1H-pyrrolo[2,3-b]pyridin-4-yl)oxy)benzyl)-1-((1S,4S)-5-methyl-2,5-diazabicyclo[2.2.1]heptan-2-yl)propan-1-one] | < 3 | < 3 |
| Cc1c[nH]c2nccc(Oc3ccc(CC(CN)C(=O)N4CCN(Cc5ccccn5)CC4)cc3F)c12 (stereo not drawn) [Example 5, 3-amino-2-(3-fluoro-4-((3-methyl-1H-pyrrolo[2,3-b]pyridin-4-yl)oxy)benzyl)-1-(4-(pyridin-2-ylmethyl)piperazin-1-yl)propan-1-one] | < 3 | < 3 |
| Cc1cc2c(Oc3ccc(CC(CN)C(=O)N4CCN(Cc5ccccc5)CC4)cc3)ccnc2[nH]1 (stereo not drawn) [Example 6, 3-amino-1-(4-benzylpiperazin-1-yl)-2-(4-((2-methyl-1H-pyrrolo[2,3-b]pyridin-4-yl)oxy)benzyl)propan-1-one] | > 30 | > 30 |
| Cc1c[nH]c2nccc(Oc3ccc(C(N)CC(=O)N4CCN(Cc5ccccc5)CC4)cc3)c12 (stereo not drawn) [Example 7, 3-amino-1-(4-benzylpiperazin-1-yl)-3-(4-((3-methyl-1H-pyrrolo[2,3-b]pyridin-4-yl)oxy)phenyl)propan-1-one] | < 3 | < 3 |
| NC(C(=O)NC1CCCCC1)c1ccc(Oc2ccnc3[nH]ccc23)cc1 (stereo not drawn) [Example 8, 2-(4-((1H-pyrrolo[2,3-b]pyridin-4-yl)oxy)phenyl)-2-amino-N-cyclohexylacetamide] | > 30 | > 30 |
| NC(C(=O)Nc1ccccc1)c1ccc(Oc2ccnc3[nH]ccc23)cc1 (stereo not drawn) [Example 9, 2-(4-((1H-pyrrolo[2,3-b]pyridin-4-yl)oxy)phenyl)-2-amino-N-phenylacetamide] | > 30 | > 30 |
| NC(C(=O)Nc1ccc(C(F)(F)F)cc1)c1ccc(Oc2ccnc3[nH]ccc23)cc1 (stereo not drawn) [Example 10, 2-(4-((1H-pyrrolo[2,3-b]pyridin-4-yl)oxy)phenyl)-2-amino-N-(4-(trifluoromethyl)phenyl)acetamide] | > 30 | > 30 |
| CN1CCN(C(=O)C(N)c2ccc(Oc3ccnc4[nH]ccc34)cc2)CC1 (stereo not drawn) [Example 11, 2-(4-((1H-pyrrolo[2,3-b]pyridin-4-yl)oxy)phenyl)-2-amino-1-(4-methylpiperazin-1-yl)ethanone] | > 30 | > 30 |
| CN(C)C(=O)C(N)c1ccc(Oc2ccnc3[nH]ccc23)cc1 (stereo not drawn) [Example 12, 2-(4-((1H-pyrrolo[2,3-b]pyridin-4-yl)oxy)phenyl)-2-amino-N,N-dimethylacetamide] | > 30 | > 30 |
| NC(C(=O)NC1CCOCC1)c1ccc(Oc2ccnc3[nH]ccc23)cc1 (stereo not drawn) [Example 13, 2-(4-((1H-pyrrolo[2,3-b]pyridin-4-yl)oxy)phenyl)-2-amino-N-(tetrahydro-2H-pyran-4-yl)acetamide] | > 30 | > 30 |
| CN1CCC(NC(=O)C(N)c2ccc(Oc3ccnc4[nH]ccc34)cc2)CC1 (stereo not drawn) [Example 14, 2-(4-((1H-pyrrolo[2,3-b]pyridin-4-yl)oxy)phenyl)-2-amino-N-(1-methylpiperidin-4-yl)acetamide] | > 30 | > 30 |
| Cc1c[nH]c2nccc(Oc3ccc(C(CN)CC(=O)N4CCN(Cc5ccccc5)CC4)cc3)c12 (stereo not drawn) [Example 15, 4-amino-1-(4-benzylpiperazin-1-yl)-3-(4-((3-methyl-1H-pyrrolo[2,3-b]pyridin-4-yl)oxy)phenyl)butan-1-one] | < 3 | < 3 |
| Cc1c[nH]c2nccc(Oc3ccc(C(CN)CC(=O)N4CCN(C5CC5)CC4)cc3)c12 (stereo not drawn) [Example 16, 4-amino-1-(4-cyclopropylpiperazin-1-yl)-3-(4-((3-methyl-1H-pyrrolo[2,3-b]pyridin-4-yl)oxy)phenyl)butan-1-one] | 3 to 30 | 3 to 30 |
| Cc1c[nH]c2nccc(Oc3ccc(CC(CN)C(=O)NC4CCCCC4)cc3F)c12 (stereo not drawn) [Example 28, 3-amino-N-cyclohexyl-2-(3-fluoro-4-((3-methyl-1H-pyrrolo[2,3-b]pyridin-4-yl)oxy)benzyl)propanamide] | < 3 | < 3 |
| Cc1c[nH]c2nccc(Oc3ccc(CC(CN)C(=O)N4CCN(Cc5ccccc5)CC4)cc3F)c12 (stereo not drawn) [Example 29, 3-amino-1-(4-benzylpiperazin-1-yl)-2-(3-fluoro-4-((3-methyl-1H-pyrrolo[2,3-b]pyridin-4-yl)oxy)benzyl)propan-1-one] | < 3 | < 3 |
| Cc1c[nH]c2nccc(Oc3ccc(CC(CN)C(=O)N4CCN(Cc5ccccc5)CC4)cc3)c12 (stereo not drawn) [Example 30, 3-amino-1-(4-benzylpiperazin-1-yl)-2-(4-((3-methyl-1H-pyrrolo[2,3-b]pyridin-4-yl)oxy)benzyl)propan-1-one] | < 3 | < 3 |
| Cc1c[nH]c2nccc(Oc3ccc(CC(CN)C(=O)NC4CCCCC4)cc3)c12 (stereo not drawn) [Example 31, 3-amino-N-cyclohexyl-2-(4-((3-methyl-1H-pyrrolo[2,3-b]pyridin-4-yl)oxy)benzyl)propanamide] | < 3 | < 3 |
| NCC(Cc1ccc(Oc2ccnc3[nH]ccc23)cc1)C(=O)N1CCN(Cc2ccccc2)CC1 (stereo not drawn) [Example 32, 2-(4-((1H-pyrrolo[2,3-b]pyridin-4-yl)oxy)benzyl)-3-amino-1-(4-benzylpiperazin-1-yl)propan-1-one] | < 3 | < 3 |
| NCC(Cc1ccc(Oc2ccnc3[nH]ccc23)cc1)C(=O)NC1CCCCC1 (stereo not drawn) [Example 33, 2-(4-((1H-pyrrolo[2,3-b]pyridin-4-yl)oxy)benzyl)-3-amino-N-cyclohexylpropanamide] | 3 to 30 | 3 to 30 |
| NCC(Cc1ccc(Oc2ccnc3[nH]ccc23)cc1)C(=O)NC1CCOCC1 (stereo not drawn) [Example 34, 2-(4-((1H-pyrrolo[2,3-b]pyridin-4-yl)oxy)benzyl)-3-amino-N-(tetrahydro-2H-pyran-4-yl)propanamide] | 3 to 30 | 3 to 30 |
| COCCCNC(=O)C(CN)Cc1ccc(Oc2ccnc3[nH]ccc23)cc1 (stereo not drawn) [Example 35, 2-(4-((1H-pyrrolo[2,3-b]pyridin-4-yl)oxy)benzyl)-3-amino-N-(3-methoxypropyl)propanamide] | 3 to 30 | 3 to 30 |
| CNCC(Cc1ccc(Oc2ccnc3[nH]cc(C)c23)cc1)C(=O)N1CCN(Cc2ccccc2)CC1 (stereo not drawn) [Example 36, 1-(4-benzylpiperazin-1-yl)-2-(4-((3-methyl-1H-pyrrolo[2,3-b]pyridin-4-yl)oxy)benzyl)-3-(methylamino)propan-1-one] | < 3 | < 3 |
| Cc1c[nH]c2nccc(Oc3ccc(CC(CN(C)C)C(=O)N4CCN(Cc5ccccc5)CC4)cc3)c12 (stereo not drawn) [Example 37, 1-(4-benzylpiperazin-1-yl)-3-(dimethylamino)-2-(4-((3-methyl-1H-pyrrolo[2,3-b]pyridin-4-yl)oxy)benzyl)propan-1-one] | < 3 | < 3 |
| Cc1c[nH]c2nccc(Oc3ccc(C4CC(=O)N(CCCN(C)C)CN4)cc3)c12 (stereo not drawn) [Example 38, 3-(3-(dimethylamino)propyl)-6-(4-((3-methyl-1H-pyrrolo[2,3-b]pyridin-4-yl)oxy)phenyl)tetrahydropyrimidin-4(1H)-one] | > 30 | > 30 |
| COCCCN1CNC(c2ccc(Oc3ccnc4[nH]cc(C)c34)cc2)CC1=O (stereo not drawn) [Example 39, 3-(3-methoxypropyl)-6-(4-((3-methyl-1H-pyrrolo[2,3-b]pyridin-4-yl)oxy)phenyl)tetrahydropyrimidin-4(1H)-one] | > 30 | > 30 |
| Cc1c[nH]c2nccc(Oc3ccc(C4CC(=O)N(CCc5ccncc5)CN4)cc3)c12 (stereo not drawn) [Example 40, 6-(4-((3-methyl-1H-pyrrolo[2,3-b]pyridin-4-yl)oxy)phenyl)-3-(2-(pyridin-4-yl)ethyl)tetrahydropyrimidin-4(1H)-one] | > 30 | > 30 |
| Cc1c[nH]c2nccc(Oc3ccc(CC4CNCN(CCCN(C)C)C4=O)cc3F)c12 (stereo not drawn) [Example 41, 3-(3-(dimethylamino)propyl)-5-(3-fluoro-4-((3-methyl-1H-pyrrolo[2,3-b]pyridin-4-yl)oxy)benzyl)tetrahydropyrimidin-4(1H)-one] | 3 to 30 | 3 to 30 |
| COCCCN1CNCC(Cc2ccc(Oc3ccnc4[nH]cc(C)c34)c(F)c2)C1=O (stereo not drawn) [Example 42, 5-(3-fluoro-4-((3-methyl-1H-pyrrolo[2,3-b]pyridin-4-yl)oxy)benzyl)-3-(3-methoxypropyl)tetrahydropyrimidin-4(1H)-one] | > 30 | 3 to 30 |
| Cc1c[nH]c2nccc(Oc3ccc(CC4CNCN(CCc5ccncc5)C4=O)cc3F)c12 (stereo not drawn) [Example 43, 5-(3-fluoro-4-((3-methyl-1H-pyrrolo[2,3-b]pyridin-4-yl)oxy)benzyl)-3-(2-(pyridin-4-yl)ethyl)tetrahydropyrimidin-4(1H)-one] | > 30 | > 30 |
| CN(C)CCCNC(=O)C(CN)Cc1ccc(Oc2ccnc3[nH]cc(C#N)c23)cc1 (stereo not drawn) [Example 44, 3-amino-2-(4-((3-cyano-1H-pyrrolo[2,3-b]pyridin-4-yl)oxy)benzyl)-N-(3-(dimethylamino)propyl)propanamide] | < 3 | < 3 |
